The record followed here is ChEMBL document CHEMBL1201862, “PubChem BioAssay data set” (2004).

Test systems include CCRF-CEM; COLO 205; EKVX; Hs-578T; KM12; MCF7; MDA-MB-435; MDA-N; NCI-H522; NCI/ADR-RES; OVCAR-3; OVCAR-5; PC-3; SF-268; SF-295; SNB-19; SNB-75; U-251.
Common to all, as to assay: inhibition of tumour cell growth, NCI panel, 48 h

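Compound exposure: 48 hours, 5 concentrations, 96-well plates. GI50 = concentration required for 50% inhibition of growth.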 The source made the active and inactive calls. Cut-off read from the data, not from the text of the source: active = GI50 up to about 1.1 µM and inactive = higher. Bounds are passed on as bounds.

As for `N[C@H]1CCCC[C@@H]1N1C(=O)c2ccccc2C1(O)c1ccc(Cl)cc1` (some centres not stated), the GI50 was 2.94 µM (inactive) in the experiment on CCRF-CEM; 3.41 µM (inactive) with COLO 205; 15.3 µM (inactive) in the experiment with EKVX; 17 µM (inactive) with Hs-578T; 2.11 µM (inactive) in the experiment with KM12; 12.3 µM (inactive) in the experiment with MCF7. Further, the GI50 in the experiment on MDA-MB-435 was 6.5 µM (inactive); in the experiment with MDA-N it was 11.8 µM (inactive); in the experiment on NCI-H522, 13.8 µM (inactive); in the experiment on NCI/ADR-RES, 12.7 µM (inactive); in the experiment with OVCAR-3, 8.73 µM (inactive); in the experiment with OVCAR-5, 15.1 µM (inactive). The GI50 with PC-3 was 11.4 µM (inactive); with SF-268, 12.4 µM (inactive); in the experiment on SF-295, 16 µM (inactive); in the experiment with SNB-19, 14 µM (inactive); in the experiment on SNB-75 it was 1.31 µM (inactive); with U-251 it was 12.6 µM (inactive).

`N#C[BH2-][n+]1ccc(C(=O)NNCc2cccc(C(F)(F)F)c2)cc1`: the GI50 in the experiment on CCRF-CEM is 28.4 µM (inactive); in the experiment on COLO 205 it was 14.1 µM (inactive); in the experiment on EKVX it was 27.3 µM (inactive); in the experiment on Hs-578T it was 4.59 µM (inactive); in the experiment on KM12, 4.76 µM (inactive); in the experiment with MCF7 it was 5.64 µM (inactive). For the same molecule, the GI50 in the experiment on MDA-MB-435 was 17.7 µM (inactive); with MDA-N it was 10.2 µM (inactive); in the experiment on NCI-H522, 16.3 µM (inactive); in the experiment with NCI/ADR-RES it was 11.6 µM (inactive); in the experiment on OVCAR-3 it was 10.9 µM (inactive); in the experiment with OVCAR-5, 21.2 µM (inactive). The GI50 in the experiment on PC-3 is 13.8 µM (inactive); in the experiment on SF-268, 4.82 µM (inactive); with SF-295, 6.68 µM (inactive); with SNB-19 it was 13.6 µM (inactive); in the experiment on SNB-75, 3.85 µM (inactive); in the experiment on U-251, 7.71 µM (inactive).

Take `C[C@H]1C(=O)C2=C[C@H]1CCC(=O)[C@]1(C)CCCC(C)(C)[C@H]1C[C@H]2O`: the GI50 in the experiment with CCRF-CEM was 15.8 µM (inactive); with COLO 205 it was 14.3 µM (inactive); with EKVX it was 13.1 µM (inactive); in the experiment with Hs-578T, 19 µM (inactive); in the experiment on KM12, 19 µM (inactive); in the experiment with MCF7, 13.7 µM (inactive). Also, the GI50 with MDA-MB-435 was 31.2 µM (inactive); in the experiment on MDA-N, 31.6 µM (inactive); with NCI-H522 it was 0.986 µM (active); in the experiment on NCI/ADR-RES, 21.5 µM (inactive); with OVCAR-3 it was 29.2 µM (inactive); in the experiment on OVCAR-5 it was 25.4 µM (inactive). Moreover, the GI50 is 33.3 µM (inactive) with PC-3; 20.5 µM (inactive) in the experiment on SF-268; 33.3 µM (inactive) with SF-295; > 100 µM (inactive) with SNB-19; 16.7 µM (inactive) in the experiment on SNB-75; 15.1 µM (inactive) in the experiment on U-251.

`COc1ccc(-c2cc(-c3ccc(Nc4ccnc5cc(C(F)(F)F)ccc45)cc3)[nH]c(=O)c2C#N)cc1`: the GI50 in the experiment with CCRF-CEM is > 24 µM (inactive); in the experiment on COLO 205 it was > 39.4 µM (inactive); in the experiment with EKVX, 98.9 µM (inactive); in the experiment on Hs-578T, 10.1 µM (inactive); with KM12 it was > 100 µM (inactive); in the experiment with MCF7 it was > 88.7 µM (inactive). Further, the GI50 is 39.6 µM (inactive) in the experiment with MDA-MB-435; > 34.5 µM (inactive) in the experiment with MDA-N; > 100 µM (inactive) in the experiment on NCI-H522; > 100 µM (inactive) in the experiment with NCI/ADR-RES; > 100 µM (inactive) in the experiment on OVCAR-3; > 66.5 µM (inactive) with OVCAR-5. Also, the GI50 is > 100 µM (inactive) in the experiment with PC-3; > 41.8 µM (inactive) with SF-268; > 32.7 µM (inactive) in the experiment with SF-295; 16.4 µM (inactive) in the experiment with SNB-19; 8.24 µM (inactive) with SNB-75; 9.57 µM (inactive) in the experiment with U-251.
